In patent US12084442B2, “Naphthyridinone derivatives for the treatment of a disease or disorder” (Novartis AG, priority 2021, dated 2024):

Columns and labels:
GIRK1/4 = GIRK1/4 (Homo sapiens (Human), UniProt P48544+P48549); assay: GIRK1/4 activity assay (Quattro/IonWorks population patch clamp, inward potassium current); format: cell-based; details: GIRK1/4 HEK293 stable cells; current inhibition normalized to DMSO-only control
Protocol: The GIRK1/4 activity of a compound according to the present invention was assessed by the following in vitro method.
• a. External buffer: 10 mM NaCl, 50 mM Na Gluconate, 80 mM K Gluconate, 1.8 mM CaCl2, 1 mM MgCl2, 10 mM HEPES, 10 mM Glucose, pH 7.4; osmolarity 300-310 Osm/L. • b. Internal buffer: 30 mM KCl, 100 mM K Gluconate, 1 mM MgCl2, 10 mM HEPES, 1 mM EGTA, 10 mM NaCl, pH 7.2; osmolarity 284-292 Osm/L. Compounds: • c. Prepare seven-fold compound dilution series (10 mM to 20 uM) in 100% DMSO, in 384-well polypropylene plates. • d. Propafenone (Sigma Aldrich, catalog number P4670) was used as a positive control and DMSO for neutral control • e. Resuspend 1 μl of compounds in DMSO into 66.7 μl external buffer in 384-well polypropylene plate and load into Plate 1 section of Molecular Devices Quattro® Quattro Setup: • f. Load 384-well Population Patch Plate (Molecular Devices #9000-0902) into Quattro • g. Fill Quattro F-soak trough with 20% DMSO and 50% EtOH • h. Fill Quattro buffer trough with external buffer • i. Attach internal buffer flask to Quattro internal buffer tubing • j. Attach PBS (Phosphate Buffered Saline, minus Ca^++ and Mg^++, pH7.4) bottle to F-head & E-head wash on Quattro Antibiotic: • k. Resuspend 5.1-5.8 mg amphotericin B (Sigma Aldrich, catalog number A2411) in 175 μl DMSO • l. Add the resulting solution to 50 mL internal buffer and attach to antibiotic tubing port on Quattro Cells: • m. Use GIRK1/4 HEK293 stable cells (obtained from ChanTest, 14656 Neo Parkway, Cleveland, Ohio 44128) grown to ˜80% confluency in the following cell culture medium: DMEM containing 10% (v/v) Fetal Bovine Serum, Penicillin/Streptomycin (at “IX” concentration from a 100× stock), 0.5 mg/mL G418 and 0.1 mg/mL Zeocin. • n. Detach cells using Detachin (Genlantis, 11011 Torreyana, San Diego, CA 92121), washed with PBS (minus Ca^++ and Mg^++) and resuspend in external buffer (5 mL final volume at 2.0-2.1×10^6 cells/mL) • o. Load into cell trough of Quattro Assay Protocol:
Quattro was controlled using IonWorks v2 software to perform the following steps: • p. Added 3.5 μl cells plus 3.5 μl external buffer to wells of Quattro Patch Plate® • q. Circulated amphotericin B and internal buffer onto cells • r. Applied the following voltage protocol: Pulse 1: 15 mV for 300 milliseconds (ms), followed by Pulse 2: −120 mV for 400 ms, then Pulse 3: −15 mV for 400 ms, and finally Pulse 4: −120 mV to 40 mV over 500 ms (this is a voltage ramp). • s. Measured magnitude of inward potassium current at time point between 1200-1220 ms from start of Pulse 1 (i.e., during the voltage ramp phase). • t. Added 3.5 μl of diluted compounds (or DMSO) to wells and repeated […] (final compound concentrations are 50 uM to 0.1 uM, and each concentration was tested in quadruplicate—i.e., in 4 separate wells). • u. The difference between current magnitude pre vs. post-compound gave a measure of GIRK1/4 inhibition. Data Analysis:
IC50 values were calculated by plotting the percentage of current inhibition (normalized to the DMSO-only control) as a function of compound concentration using standard data analysis software.

[1] = Pharmacokinetic properties in rats (IV and PO, whole blood LC-MS/MS); format: in vivo, Spargue Dawley/CD, male; details: for Rat AUC0-24 h 3 mg/kg: 3 mg/kg PO, suspension; for Rat AUC0-24 h 3 mg/kg / clearance: whole blood; for clearance: male, Sprague Dawley/CD, rat, IV dosing (0.3-1 mg/kg), CL = Dose/AUCinf; for Rat F: oral bioavailability, PO 3 mg/kg vs IV
Protocol: The pharmacokinetic properties of the compounds in rats were assessed by the following in vivo studies as described below.
At least four days before first drug administration, the rats (250-350 g) were anesthetized and, under aseptic conditions, catheters were surgically implanted into the left and right jugular veins (one for blood collection and the other one for intravenous injection). The catheters were exteriorized and fixed at the neck. For analgesic treatment, animals received analgesics before surgery and subsequently twice at appropriate times after surgery. The freely-moving animals equipped with catheters are kept individually in Macrolon cages, with free access to food and water throughout the experiment. After a recovery phase of at least 4 days, a single test compound was administered intravenously or orally, based upon the individual body weights.
The test articles were administered as solution in NMP:PEG 200 (10:90 v/v). Test articles where no solution can be obtained were rejected and not used in discrete or cassette dosing.
The test article were administered as suspension in MC:Tween 80:water (0.5:0.1:99.4 w/v/v).
The test article was administered as solution and as a bolus injection or as short I.V. infusion (30 seconds) via the left jugular vein catheter to conscious rats. The dose volume was 0.5 mL/kg body weight.
The test article was administered as a solution or suspension into the esophagus via a gavage tube to conscious rats. The dose volume was 5 mL/kg body weight. The exact start time of dosing and exact dose volume was noted.
Blood samples (20 μL) were collected from the right jugular vein catheter of cannulated animals (if JV catheter becomes non patent during the PK experiment (i.e., after dosing), blood can exceptionally be collected by tail vein puncture but it must be clearly specified into the in-life observations and data study rep) in tubes containing 10% of blood of 2% W/V K2 EDTA (2.0 mg/mL) at the different time intervals. Blood was collected following IV dosing at 0.083, 0.25, 0.5, 1, 2, 4, 7 and 24 h post dose. Blood was collected following PO dosing: 0.25, 0.5, 1, 2, 4, 7 and 24 h post dose.
The concentrations of compounds in whole blood were quantified using a liquid chromatography/mass spectrometry (LC-MS/MS) assay. 20 μL of each blood sample were precipitated with 100 μL of acetonitrile containing generic internal standards (carbamazepine/telmisartan/verapamil; c=50 ng/mL). The samples were vortexed thoroughly then centrifuged (5 min, 4° C.). The supernatant (80 μL) was transferred to a clean 96-well plate and mixed with 80 μL of water.
The samples were injected (1 to 20 μL) onto suitable analytical columns, using various isocratic methods and flow rates. Mobile phases typically consisting of 0.1% formic acid in water (solvent A) and 0.1% formic acid in acetonitrile (solvent B) with additional modifiers, if needed. Compounds and the internal standards were eluted at various retention times. The HPLC systems were interfaced to mass spectrometers. MS/MS analyses were carried out using electrospray ionization (ESI), typically in the positive ionization mode. Compounds and the internal standards were monitored using multiple reaction monitoring (MRM).
The standard curves employed for sample quantitation ranged over several log units. The lower limit of quantitation (LLOQ) in blood was determined and used as cutoff for the analytical sensitivity. Known amounts of the compounds were spiked into blood to create quality control samples with six known concentrations in singlets. The accuracy of the in vivo blood sample concentration determination was considered acceptable when the intra-assay accuracies obtained for the quality control samples were within 70% to 130% of the expected concentrations. Subsequently, from the time concentration data, pharmacokinetic parameters were calculated by non-compartmental regression analyses using an in house fitting program. […]

[2] = Pharmacokinetic study in male Beagle dogs; format: in vivo

Chain of GIRK1/4 (P48549 whole entry): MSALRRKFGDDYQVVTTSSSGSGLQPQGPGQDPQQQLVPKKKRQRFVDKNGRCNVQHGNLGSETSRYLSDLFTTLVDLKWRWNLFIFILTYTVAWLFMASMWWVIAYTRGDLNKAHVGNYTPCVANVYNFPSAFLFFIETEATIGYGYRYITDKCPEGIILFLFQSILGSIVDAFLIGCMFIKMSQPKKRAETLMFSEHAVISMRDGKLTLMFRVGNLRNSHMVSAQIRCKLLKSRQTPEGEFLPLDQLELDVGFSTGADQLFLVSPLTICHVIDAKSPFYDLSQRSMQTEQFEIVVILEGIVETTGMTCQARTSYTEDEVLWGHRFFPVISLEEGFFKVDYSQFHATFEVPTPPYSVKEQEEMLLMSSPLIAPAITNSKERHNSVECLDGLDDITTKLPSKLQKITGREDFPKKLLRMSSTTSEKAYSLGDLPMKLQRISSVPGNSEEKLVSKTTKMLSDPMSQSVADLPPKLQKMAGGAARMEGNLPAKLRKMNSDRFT
Chain of GIRK1/4 (P48544 whole entry): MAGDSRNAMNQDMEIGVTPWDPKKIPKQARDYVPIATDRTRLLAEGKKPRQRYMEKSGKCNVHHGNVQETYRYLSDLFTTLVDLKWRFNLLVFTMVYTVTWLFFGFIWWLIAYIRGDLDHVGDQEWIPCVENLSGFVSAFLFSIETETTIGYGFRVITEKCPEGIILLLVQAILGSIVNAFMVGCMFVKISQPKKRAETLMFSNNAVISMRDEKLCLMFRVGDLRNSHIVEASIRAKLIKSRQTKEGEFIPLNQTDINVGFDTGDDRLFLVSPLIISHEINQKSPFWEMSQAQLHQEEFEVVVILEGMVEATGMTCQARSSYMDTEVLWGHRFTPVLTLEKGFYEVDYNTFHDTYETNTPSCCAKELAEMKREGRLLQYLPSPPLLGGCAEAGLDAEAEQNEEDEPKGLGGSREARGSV

Row | IC50 (GIRK1/4) [µM] | Rat AUC0-24 h 3 mg/kg [1] [nMh] | clearance [1] [L/h/kg] | Rat F [1] [%] | AUC0-24 h ([2]; 0.3 mg/kg IV solution and 1 mg/kg PO suspension) [nMh] | clearance ([2]; dog, in vivo, 0.3 mg/kg IV as a solution, read-out: Clearance (Cl)) [L/h/kg] | bioavailability ([2]; dog, in vivo, 1 mg/kg PO as a suspension vs 0.3 mg/kg IV, read-out: Oral bioavailability (F)) [%] | Compound
1 | 0.09 | 3270 | 1.21 | 71 | 5270 | 0.33 | 87 | CNC(=O)CCOc1ncc(Cl)c2c1c(=O)cc(C)n2-c1c(Cl)cc(OCCO)cc1Cl [Example 1, 3-((8-Chloro-1-(2,6-dichloro-4-(2-hydroxyethoxy)phenyl)-2-methyl-4-oxo-1,4-dihydro-1,6-naphthyridin-5-yl)oxy)-N-methylpropanamide]
2 | 0.07 | 4410 | 0.816 | 61 |  |  |  | CNC(=O)[C@H](C)COc1ncc(Cl)c2c1c(=O)cc(C)n2-c1c(Cl)cc(OCCO)cc1Cl [Example 7, (R)-3-((8-Chloro-1-(2,6-dichloro-4-(2-hydroxyethoxy)phenyl)-2-methyl-4-oxo-1,4-dihydro-1,6-naphthyridin-5-yl)oxy)-N,2-dimethylpropanamide]
3 | 0.08 | 1460 | 1.45 | 40 |  |  |  | CC(=O)NCCOc1ncc(Cl)c2c1c(=O)cc(C)n2-c1c(Cl)cc(OCCO)cc1Cl [Example 9, N-(2-((8-chloro-1-(2,6-dichloro-4-(2-hydroxyethoxy)phenyl)-2-methyl-4-oxo-1,4-dihydro-1,6-naphthyridin-5-yl)oxy)ethyl)acetamide]
4 | 0.06 | 2410 | 1.1 | 55 |  |  |  | CNC(=O)[C@@H](O)COc1ncc(Cl)c2c1c(=O)cc(C)n2-c1c(Cl)cc(OCCO)cc1Cl [Example 13, (S)-3-((8-Chloro-1-(2,6-dichloro-4-(2-hydroxyethoxy)phenyl)-2-methyl-4-oxo-1,4-dihydro-1,6-naphthyridin-5-yl)oxy)-2-hydroxy-N-methylpropanamide]
5 | 0.32 | 1290 | 1.97 | 46 |  |  |  | CNC(=O)CCOc1ncc(Cl)c2c1c(=O)cc(C)n2-c1c(Cl)cc(OCC2(O)COC2)cc1Cl [Example 15, 3-((8-Chloro-1-(2,6-dichloro-4-((3-hydroxyoxetan-3-yl)methoxy)phenyl)-2-methyl-4-oxo-1,4-dihydro-1,6-naphthyridin-5-yl)oxy)-N-methylpropanamide]
6 | 0.25 | 2310 | 1.9 | 73 |  |  |  | CNC(=O)COc1cc(Cl)c(-n2c(C)cc(=O)c3c(OCC(N)=O)ncc(Cl)c32)c(Cl)c1 [Example 17, 2-(4-(5-(2-Amino-2-oxoethoxy)-8-chloro-2-methyl-4-oxo-1,6-naphthyridin-1(4H)-yl)-3,5-dichlorophenoxy)-N-methylacetamide]
7 | 0.05 | 1290 | 1.67 | 46 |  |  |  | CC(=O)NCCCc1ncc(Cl)c2c1c(=O)cc(C)n2-c1c(Cl)cc(OCCO)cc1Cl [Example 19, N-(3-(8-Chloro-1-(2,6-dichloro-4-(2-hydroxyethoxy)phenyl)-2-methyl-4-oxo-1,4-dihydro-1,6-naphthyridin-5-yl)propyl)acetamide]
8 | 0.05 | 2407 | 1.19 | 44 |  |  |  | Cc1cc(=O)c2c(CCS(C)(=O)=O)ncc(Cl)c2n1-c1c(Cl)cc(OCCO)cc1Cl [Example 20, 8-Chloro-1-(2,6-dichloro-4-(2-hydroxyethoxy)phenyl)-2-methyl-5-(2-(methylsulfonyl)ethyl)-1,6-naphthyridin-4(1H)-one]
9 | 0.19 | 1360 | 1.42 | 37 |  |  |  | Cc1cc(=O)c2c(CCCS(C)(=O)=O)ncc(Cl)c2n1-c1c(Cl)cc(OCC(C)(C)O)cc1Cl [Example 22, 8-Chloro-1-(2,6-dichloro-4-(2-hydroxy-2-methylpropoxy)phenyl)-2-methyl-5-(3-(methylsulfonyl)propyl)-1,6-naphthyridin-4(1H)-one]
